Data: paper PMC8150775, “Repositioning Azelnidipine as a Dual Inhibitor Targeting CD47/SIRPα and TIGIT/PVR Pathways for Cancer Immuno-Therapy” (Biomolecules, 2021)

What was measured:
human PVR = biological target: T1, human PVR (Homo sapiens, UniProt P15151); test: Microscale thermophoresis (MST) binding
T1 construct: His; purchased ACRO Biosystem CD5-H5223
Description: (§1) MST assays were performed to test the affinity of SMI-F11 (azelnidipine) to the indicated protein using the Monolith NT.115 system, as previously reported. His tagged human SIRPα (SIA-H5225, ACRO Biosystem, Beijing, China), mouse SIRPα (50956-M08H, Sino Biological, Beijing, China), human PVR (CD5-H5223, ACRO Biosystem, Beijing, China), and mouse PVR (50259-M08H, Sino Biological, Beijing, China) were used. The protein was labeled with Red-NHS647 dye (NanoTemper Technologies GmhH, Munich, Germany) according to the manufacturer’s instructions. Azelnidipine was 2-fold serially diluted from 200 μM and subsequently tested. Red-NHS647 dye-labeled protein was incubated with the diluted azelnidipine, with equal volume for 5 min at room temperature; the mixture was then loaded onto standard capillaries for detection. The KD values were calculated by the analysis software (MO. Affinity Analysis, version number 2.2.4, NanoTemper Technologies GmhH, Munich, Germany).

mouse SIRPα = biological target: T2, mouse SIRPα (Mus musculus, UniProt P97797); test: Microscale thermophoresis (MST) binding
T2 construct: His; purchased Sino Biological 50956-M08H
T2 sequence (P97797 32-513): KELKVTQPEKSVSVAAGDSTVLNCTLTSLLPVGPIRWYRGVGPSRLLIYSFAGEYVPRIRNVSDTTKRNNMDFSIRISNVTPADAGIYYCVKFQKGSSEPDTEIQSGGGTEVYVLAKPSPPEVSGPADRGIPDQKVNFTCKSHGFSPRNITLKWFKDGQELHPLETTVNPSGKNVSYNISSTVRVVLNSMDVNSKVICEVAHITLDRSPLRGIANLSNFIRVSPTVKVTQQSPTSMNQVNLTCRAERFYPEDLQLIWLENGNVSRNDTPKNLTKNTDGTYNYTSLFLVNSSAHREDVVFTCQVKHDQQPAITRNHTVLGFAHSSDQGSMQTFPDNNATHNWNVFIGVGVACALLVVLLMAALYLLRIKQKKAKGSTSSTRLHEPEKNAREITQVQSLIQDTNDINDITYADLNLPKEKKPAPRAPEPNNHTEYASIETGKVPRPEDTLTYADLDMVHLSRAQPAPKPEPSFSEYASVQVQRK
Description: as §1

mouse TIGIT/PVR = biological target: T3, mouse TIGIT/PVR (Mus musculus, UniProt F6V4I7); test: Blocking assay, mouse PVR protein binding to CHOK1-mTIGIT cells; conditions: concentration gradient; read-out: IC50, blocking mouse TIGIT/PVR (mPVR binding)
T3 construct: purchased Sino Biological 50259-M03H; host or cells: soluble protein purchased; TIGIT on CHOK1-mTIGIT cells (lenti-viral transfection)
T3 sequence (F6V4I7 29-408): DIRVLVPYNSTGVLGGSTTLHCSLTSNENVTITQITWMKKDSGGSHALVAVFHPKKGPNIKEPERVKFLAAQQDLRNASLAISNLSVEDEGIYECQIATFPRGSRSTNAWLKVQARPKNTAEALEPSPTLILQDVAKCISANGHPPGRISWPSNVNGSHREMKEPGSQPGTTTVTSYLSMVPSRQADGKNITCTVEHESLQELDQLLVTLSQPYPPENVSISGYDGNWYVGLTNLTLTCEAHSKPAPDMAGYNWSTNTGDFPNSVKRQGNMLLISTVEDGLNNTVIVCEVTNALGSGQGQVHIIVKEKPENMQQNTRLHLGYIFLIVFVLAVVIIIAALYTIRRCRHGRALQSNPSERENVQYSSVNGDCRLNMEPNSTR
Description: The abilities of small molecule inhibitors (SMIs) (purchased from TargetMol, Shanghai, China) to block the binding of SIRPα protein to CHOK1-CD47 cells or PVR protein to CHOK1-TIGIT cells were determined by flow cytometry, as previously reported. The SMIs at indicated concentrations were incubated with Fc-tagged SIRPα or PVR protein for 30 min at 4°C, followed by incubating with the indicated cells for another 30 min. Human SIRPα protein (SIA-[…], ACRO Biosystem, Beijing, China), mouse SIRPα protein (SIA-[…], ACRO Biosystem, Beijing, China), human PVR protein (CD5-[…], ACRO Biosystem, Beijing, China), and mouse PVR protein (50259-[…], Sino Biological, Beijing, China) were used. PE-conjugated anti-human IgG antibody was used to detect the Fc protein bind to cells. Cells incubated with the Fc proteins and anti-human IgG antibody without the SMIs serve as the positive control. The mean fluorescent intensity (MFI) of each sample was detected and recorded by a flow cytometry. The blocking efficacy of the SMIs was calculated as the equation: (MFI of the positive control-MFI of the SMI)/MFI of the positive control × 100%.

T1 sequence (P15151 21-417): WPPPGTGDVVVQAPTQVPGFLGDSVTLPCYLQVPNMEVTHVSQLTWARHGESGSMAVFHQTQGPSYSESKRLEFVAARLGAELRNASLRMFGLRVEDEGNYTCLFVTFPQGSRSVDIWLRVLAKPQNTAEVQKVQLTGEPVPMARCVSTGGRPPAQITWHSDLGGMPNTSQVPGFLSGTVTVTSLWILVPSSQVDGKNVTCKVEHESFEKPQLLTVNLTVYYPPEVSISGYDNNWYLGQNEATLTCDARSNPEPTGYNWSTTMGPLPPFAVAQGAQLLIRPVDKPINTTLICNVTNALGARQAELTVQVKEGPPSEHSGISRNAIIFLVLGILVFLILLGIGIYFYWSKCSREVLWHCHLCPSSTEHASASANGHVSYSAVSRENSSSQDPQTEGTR

**Q.** For `CC1=C(C(=O)OC(C)C)C(c2cccc([N+](=O)[O-])c2)C(C(=O)OC2CN(C(c3ccccc3)c3ccccc3)C2)=C(N)N1` (stereo not drawn) [Azelnidipine], which Kd (human PVR) is on record?
**A.** The Kd was 6.48 µM.

**Q.** And the Kd (mouse SIRPα)?
**A.** Its Kd is 3.75 µM.

**Q.** What about the IC50 (mouse TIGIT/PVR) of the same compound?
**A.** Its IC50 is roughly 82 µM.
